Results on 12 compounds are retold here after patent publication US6891069B1, “Synthesis of 4-substituted phthalaldehyde” (Ethicon, Inc., priority 2004, dated 2005).

Structures can show the parent of a compound that is named as a salt. Where two headings read alike, the source gives them in different places.

Data set [1] deals with Mycobacterium terrae bacteria. Briefly: bacterial suspension test. The following applies: for Germicidal Efficacy: summary Table 14. In kind it is cell-based. The method, then:
In Examples 1 to 3, which follow, several germicidal solutions containing either the 4-fluoro-, 4-chloro-, or 4-bromo-phthalaldehyde compound were tested to determine their effectiveness in killing at least 1×10^6/mL of Mycobacterium terrae bacteria using a bacterial suspension test. The bacterial suspension test that was employed is described in Section VII.
The solutions were prepared by adding the appropriate amounts of the germicidal compounds to an aqueous solution. Unless otherwise mentioned all concentrations reported herein are expressed in (w/v)%. The pH of the solution was not adjusted. The tests were conducted at a temperature of about 20° C. (room temperature). The results are presented in terms of log reductions/mL. It is understood that these examples, as well as the other examples herein, are to be construed as merely illustrative, and not limiting.
In this test method, 9 mL of the germicide to be tested is placed in a tube, put into a water bath and allowed to come to the desired temperature. One mL of the test organism, including at least 7 logs/mL of Mycobacterium terrae bacteria, is added to the 9 mL of the germicide to be tested. […] It will be appreciated by those skilled in the art that other concentrations may be utilized by proper dilution and accounting.
At appropriate time intervals, 1 mL aliquots of the germicide-cell suspension were removed and added directly into 9 mL of a 1% glycine solution (neutralizer) and mixed thoroughly to neutralize the germicide in the transferred suspension. The glycine solution was prepared from solid glycine, which is available from VWR Scientific Products, among others. The above-identified 10 mL neutralized solution was then poured through a membrane filter having an average pore size of 0.45 micrometers. The filter was then rinsed twice with at least 150 mL of the 1% glycine solution per rinse. The filter was then placed on an agar plate and incubated for twenty-one days at 37° C. In the above procedure, if dilution was needed, then the 1 mL germicidal-cell suspension was diluted in 99 mL of a phosphate buffer before addition to the 9 mL of the 1% glycine solution. The phosphate buffer was DiLu-LoK™ Butterfields Phosphate Buffer, available from Hardy Diagnostics, of Santa Maria, Calif.
The surviving colonies are then counted. The data is plotted as S/So vs. time. So is the initial count of the bacteria in the above 10 mL solution which is at least 10^6 bacteria/mL, and S is the surviving bacteria from the above filter on the agar plate. The results of the experiments were presented in terms of log reductions. Log reduction is the difference between log(So) and log(S). As one example, if log(So)=6.2, and if there were 100 survivors, then the log(S)=2, and the log reduction was reported as 4.2.

The nature of the next data set: solubility in water. The settings on record: for Concentration, Saturated: saturated aqueous germicidal solution, pH not adjusted.

As for `O=Cc1ccccc1C(O)S(=O)(=O)[O-].[Na+]` (stereo not shown) [(2-formyl-phenyl)-hydroxy-methane sulfonic acid, sodium salt], the “Log Reductions/mL” value in data set [1] (9.1%, 20° C., 5 min, listed as (2-formyl-phenyl)-hydroxy-methane sulfonate, sodium salt) is on record as “confluent”; in data set [1] (9.1%, 20° C., 5 min, listed as H-SULF, sodium salt) it was “Confluent”. Besides, the log reduction at 8.9 % in data set [1] (Mycolicibacter terrae, 0.5 h, 20° C., 30 min, read-out: Log Reductions/mL) worked out at 2; in data set [1] (Mycolicibacter terrae, 1 h, 20° C., 60 min, read-out: Log Reductions/mL) it was 3.5; in data set [1] (Mycolicibacter terrae, 2 h, 20° C., 120 min, read-out: Log Reductions/mL), 5.7.
As to `O=Cc1cccc(C=O)c1` [IPA, isophthalaldehyde, reference compound], the “Log Reductions/mL” value in data set [1] (0.3%, dissolved in 20% isopropanol, 20° C., 5 min (Table 11)) is “Confluent”; in data set [1] (0.3%, dissolved in 20% isopropanol, 20° C., 5 min (Table 15)) it was “Confluent”. In addition, the “Germicidal Efficacy” value in data set [1] is recorded as “Poor”.
Regarding `O=CC(c1nc2ccccc2o1)C(O)S(=O)(=O)O` (stereo not shown) [2-benzooxazol-2-yl-1-hydroxy-3-oxo-propane-1-sulfonic acid, sodium salt], in data set [1] (Mycolicibacter terrae, 1 h, 11.1%, 20° C., 60 min, read-out: Log Reductions/mL), the log reduction at 11.1 % was found to be 5.
Take `O=Cc1ccc(F)cc1C=O` [4-fluoro-phthalaldehyde]: the “Log Reductions/mL” value in data set [1] (0.25%, 20° C., 60 minutes) is recorded as “Total Kill”. Besides, the log reduction at 0.25 % in data set [1] (Mycolicibacter terrae, 0.5 h, 0.25%, 20° C., 30 minutes, read-out: Log Reductions/mL) amounted to 5.6.
Consider `O=Cc1ccc(Cl)cc1C=O` [4-chloro-phthalaldehyde], for which the “Log Reductions/mL” value in data set [1] (2.7 w/v % in 20% isopropanol, 20° C., 5 min) is on record as “Total Kill”. In addition, the log reduction at 0.2 % in data set [1] (Mycolicibacter terrae, 5 min, 0.2 w/v %, 20° C., 5 min, read-out: Log Reductions/mL) worked out at 5.9.
For the compound `O=CC(C=O)c1ccccc1` [phenyl-propanedial], the “Log Reductions/mL” value in data set [1] (0.4%, 20° C., 60 min) was “Total Kill”; in data set [1] (0.7%, 20° C., 15 min) it was “Total Kill”. Also, the kill result in data set [1] (1% solution, 5 minutes, 20° C.) is reported as “more than 4 logs”. The log reduction at 0.3 % in data set [1] (Mycolicibacter terrae, 1 h, 0.3%, 20° C., 60 min, read-out: Log Reductions/mL) stood at 3.7. For the same compound, in data set [1] (Mycolicibacter terrae, 1 h, 0.33%, 20° C., 60 min, read-out: Log Reductions/mL), the log reduction at 0.33 % was found to be 3.7. Further, in “solubility in water”, the solubility in water entry was “about 1%”.
Take `O=Cc1ccccc1C=O` [OPA, phthalaldehyde]: the log reduction at 0.08 % in data set [1] (Mycolicibacter terrae, 0.5 h, 0.08%, 20° C., 30 min, read-out: Log Reductions/mL) came out at 3.1. The log reduction at 0.1 % in data set [1] (Mycolicibacter terrae, 0.5 h, 0.10%, 20° C., 30 min, read-out: Log Reductions/mL) came out at 3.4. For the same compound, the log reduction at 0.14 % in data set [1] (Mycolicibacter terrae, 0.5 h, 0.14%, 20° C., 30 min, read-out: Log Reductions/mL) stood at 5.8. The “Germicidal Efficacy” value in data set [1] is given as “Good”. Besides, the solubility in water result in “solubility in water” is “about 5 % by weight”.
As to `O=Cc1ccc(C=O)cc1` [TPA, terephthaladehyde, reference compound], the “Log Reductions/mL” value in data set [1] (0.2%, dissolved in 20% isopropanol, 20° C., 5 min) was “Confluent”. Also, the “Germicidal Efficacy” value in data set [1] is reported as “Poor”.
Regarding `O=Cc1ccc(Br)cc1C=O` [4-bromo-phthalaldehyde], in data set [1] (0.1%, 20° C., 30 minutes), the “Log Reductions/mL” value is “Total Kill”. Moreover, the log reduction at 0.1 % in data set [1] (Mycolicibacter terrae, 10 min, 0.1%, 20° C., 10 minutes, read-out: Log Reductions/mL) turned out to be 5.6.
As for `O=CC(c1ccccc1)C(O)S(=O)(=O)[O-].[Na+]` (stereo not shown) [1-hydroxy-3-oxo-2-phenyl-propane-1-sulfonic acid, sodium salt], the “Log Reductions/mL” value in data set [1] (0.6%, 20° C., 60 min, sodium salt) is “Total Kill”; in data set [1] (2.5%, 20° C., 10 min, sodium salt), “Total Kill”; in data set [1] (2.5%, 20° C., 30 min) it was “Total Kill”; in data set [1] (9.4%, 20° C., 30 min), “Total Kill”. The log reduction at 0.6 % in data set [1] (Mycolicibacter terrae, 0.25 h, 0.6%, 20° C., 15 min, read-out: Log Reductions/mL) is 2.4; in data set [1] (Mycolicibacter terrae, 0.5 h, 0.6%, 20° C., 30 min, read-out: Log Reductions/mL) it was 3.5.
4-pyridinyl-propanedial: the “Log Reductions/mL” value in data set [1] (Saturated (˜2.3% w/v), 5 min, 20° C.) was 4.0 log reductions/mL. In “solubility in water”, the “Concentration, Saturated” value is given as “(˜2.3%) w/v %”.
On to `O=CC(C=O)c1cccc(C(=O)O)c1[N+](=O)[O-]` [3-(1-formyl-2-oxoethyl)-2-nitro-benzoic acid], for which the “Concentration, Saturated” value in “solubility in water” is on record as “(˜2.1%) w/v %”.
